The values below come from patent publication US4014909A, “Esters of 21-thiol steroids” (priority 1974, dated 1977).

Where two headings read alike, the source gives them in different places.

The conditions of data set [1]: cited from earlier work.
A further data set deals with granuloma. Nature of the data set: Anti-proliferative (anti-granulomatous) activity, cotton pellet granuloma. It is filed as in vivo, rat (Wistar, male). Conditions: rat, cotton pellet impregnated with product, 6 days. From the text: The experimental local anti-inflammatory activity of the compounds presented was estimated in rats by their anti-proliferative (anti-granulomatous) action, and for certain of these, by their anti-arthritic activity and their antiexudative activity.
The anti-proliferative (anti-granulomatous) activity has been brought into evidence by means of a test, the principle of which is as follows.
The introduction of a foreign body into an organism produces a set of inflammatory reactions which results, in the chromic stage, in the formation of a defence granuloma around the foreign body. The proliferation of this granuloma is eliminated or attenuated by anti-inflammatory agents.
The technique employed is very similar to that described by Winter and Porter (J. Am. Pharm. Ass. 46/9. 515) 1957 with rats.
Homogeneous groups of 6 male adult rats of the Wistar Strain were used, distributed at random and having weights comprised between 180 and 200 grams.
The implants or pellets were prepared from rolls of dental cotton; the weight of the pellets was between 35 and 40 mg.
The products to be tested were dissolved in dimethylsulphoxide (DMSO) and the solutions obtained, deposited on the pellets at a volume of 0.2 ml per pellet. The DMSO was then evaporated under high vacuum at ambient temperature, the complete elimination of the solvent being checked by weighing the pellets. "Reference" pellets, soaked with the solvent alone, were treated in the same manner.
Immediately before their introduction, the pellets were soaked with an antibiotic solution (0.1 ml. of a solution of penicillin G and streptomycin containing 200,000 of penicillin G and 0.1 gram of streptomycin sulphate per cc.).
Each animal received two pellets in the sub-cutaneous dorsal tissue on each side of the spinal column, at the costo-lumbar angle, under light anaesthesia with ether. The day of the operation and for three days after, the animals received by sub-cutaneous injection, 0.1 ml. of the antibiotic solution in the caudal region.
Six days after the introduction, the animals were killed by inhalation of chloroform and the granulomae were extracted and weighed, (fresh weight), and then the initial weights of the cotton pellets were subtracted from the total weight.
Certain non-sulphured steroids causing a large increase in protein catabolism which can influence the formation of the granuloma independently of their anti-inflammatory action, the weights of the granulomae were expressed as a percentage of the body weight (technique proposed by G. Dipasquale and A. Meli: J. Pharm. Pharmacol. (1965), 17,367-382) and the anti-proliferative effect of the various compounds as a percentage inhibition with respect to the reference granulomae. The DE50 were calculated by transferring the results on to semi-logarithmic paper.

The test system of another data set is thymus. It is filed as in vivo, rat (Wistar, young male). How it is done: The thymolytic effects have been examined by means of a test, the principle of which is as follows:
The repeated administration of a gluco-corticoid having a systemic activity causes an involution of the defence system of the organism, of which two organs belong to the reticulo-endothelial system, the spleen and the thymus, this latter being the most sensitive to this action, especially with young animals. The thymic involution is estimated by weighing.
The various products were injected daily by the oral or the sub-cutaneous route for four days, to young male rats of Wistar-strain, the initial weight of which was between 45 and 55 grams, distributed at random by groups of ten.
The products under study were administered at a volume of 0.2 ml. per animal for both methods, in suspension in:
Carboxy-methyl-cellulose at 5 % for sub-cutaneous injection;
Gum arabic at 5 % for the oral route.
The animals of the reference groups received the same volume of the corresponding vehicle.
Ninety-six hours after the first administration, the animals were killed, the thymus glands being taken and weighed immediately.
(§1) For each animal, the weight of the thymus has been brought to 100 grams of body weight. The thymolytic activity of the products under study was then expressed as a percentage of regression of the thymus with respect to the animals of the reference group and the ED50 of each product tested was estimated by transferring the percentage inhibition obtained for each dose on semi-logarithmic paper.

In a further data set the test system is granuloma / thymus. Put plainly: Ratio of the local anti-inflammatory activity to the thymolytic activity. It is filed as in vivo, rat (Wistar). Conditions: for ED50 anti-proliferative activity / ED50 thymolytic activity (sub-cutaneous route): thymolytic activity determined by sub-cutaneous route; for ED50 anti-proliferative activity / ED50 thymolytic activity (oral route): thymolytic activity determined by the oral route. The method, then:
The DE50 were calculated by transferring the results on to semi-logarithmic paper.
as §1
The ratio is indicated in Tables VII, VIII and IX which follow: […]

Where [2] appears, read: oral, total dose administered during four days per rat of about 50 g.
The mark [3] stands for this setting: sub-cutaneous, total dose administered during four days per rat of about 50 g.

For the molecule `CCC(=O)SCC(=O)[C@@]1(O)CC[C@H]2[C@@H]3CCC4=CC(=O)C=C[C@]4(C)[C@H]3[C@@H](O)C[C@@]21C` [21-thio propionate of prednisolone], in data set [1] (U.S. Pat. No. 2,814,632), the Adreno-corticoid activity result is “possessing an adreno-corticoid activity” and the Diuretic activity result was “considerable diuretic activity”.

Consider `CC(=O)SCC(=O)[C@@]1(O)[C@H](C)C[C@H]2[C@@H]3CCC4=CC(=O)C=C[C@]4(C)[C@@]3(F)[C@@H](O)C[C@@]21C` [21-thio-acetate of dexamethasone], for which the Anti-inflammatory action entry in data set [1] (French Pat. No. 1187 M) was “anti-inflammatory product with a local action and a systemic action”.

In the case of `CC(=O)SCC(=O)[C@@]1(O)CC[C@H]2[C@@H]3CCC4=CC(=O)CC[C@]4(C)[C@H]3[C@@H](O)C[C@@]21C` [21-thio-acetate of hydrocortisone], the Biological activity entry in data set [1] (J. Org. Chem. 26,1233, 1961) is listed as “free of all interesting biological activity”.

The molecule `CC(=O)OCC(=O)[C@@]1(O)[C@H](C)C[C@H]2[C@@H]3CCC4=CC(=O)C=C[C@]4(C)[C@@]3(F)[C@@H](O)C[C@@]21C` [Dexamethasone (acetate), Dexamethasone acetate, reference compound] yielded an ED50 anti-proliferative activity with granuloma of 0.4 mg/pellet. For the same molecule, the “ED50 thymolytic activity, sub-cutaneous route” value with thymus (rat, in vivo, 5760 min) is given as 0.009 mg. The “ED50 thymolytic activity, oral route” value in the data set with thymus (rat, in vivo, po, 5760 min) was found to be 0.01 mg. Besides, in the data set on granuloma / thymus, the “ED50 anti-proliferative activity / ED50 thymolytic activity (sub-cutaneous route)” value worked out at 40 and the “ED50 anti-proliferative activity / ED50 thymolytic activity (oral route)” value was determined as 40.

For the molecule `C[C@@H]1C[C@H]2[C@@H]3CCC4=CC(=O)C=C[C@]4(C)[C@@]3(F)[C@@H](O)C[C@]2(C)[C@@]1(O)C(=O)CO` [Dexamethasone (base), Dexamethasone, reference compound], in the data set on granuloma, the ED50 anti-proliferative activity stood at 1 mg/pellet. Also, the “ED50 thymolytic activity, sub-cutaneous route” value in the data set with thymus (rat, in vivo, 5760 min) is reported as 10.02 mg. Also, the “ED50 thymolytic activity, oral route” value with thymus (rat, in vivo, po, 5760 min) worked out at 0.013 mg. For the same molecule, in the data set with granuloma / thymus, the “ED50 anti-proliferative activity / ED50 thymolytic activity (sub-cutaneous route)” value is recorded as 50 and the “ED50 anti-proliferative activity / ED50 thymolytic activity (oral route)” value amounted to 80.

In the case of `C[C@]12CCC(=O)C=C1CC[C@@H]1[C@@H]2[C@@H](O)C[C@@]2(C)[C@H]1CC[C@]2(O)C(=O)CO` [Hydrocortisone (base), Hydrocortisone, reference compound], the ED50 anti-proliferative activity in the data set on granuloma is listed as 10 mg/pellet. The “ED50 thymolytic activity, sub-cutaneous route” value in the data set on thymus (rat, in vivo, 5760 min) is reported as 1.8 mg. Further, the “ED50 thymolytic activity, oral route” value in the data set on thymus (rat, in vivo, po, 5760 min) came out at 4 mg. Besides, in the data set on granuloma / thymus, the “ED50 anti-proliferative activity / ED50 thymolytic activity (sub-cutaneous route)” value amounted to 5.5 and the “ED50 anti-proliferative activity / ED50 thymolytic activity (oral route)” value stood at 2.5.

As for `CC(C)(C)C(=O)SCC(=O)[C@@]1(O)CC[C@H]2[C@@H]3CCC4=CC(=O)C=C[C@]4(C)[C@H]3[C@@H](O)C[C@@]21C` [JO 1007, Dihydroxy-11β, 17αThiol 21 Dioxo-3,20 Pregnadiene-1,4 -21 Pivalate], in the data set on granuloma, the ED50 anti-proliferative activity is reported as 0,44 mg/pellet. Further, the “ED50 thymolytic activity, sub-cutaneous route” value with thymus (rat, in vivo, 5760 min) worked out at 30.4 mg. Also, the “ED50 thymolytic activity, oral route” value in the data set with thymus (rat, in vivo, po, 5760 min) amounted to 9.6 mg. In addition, in the data set with granuloma / thymus, the “ED50 anti-proliferative activity / ED50 thymolytic activity (sub-cutaneous route)” value is 0.014 and the “ED50 anti-proliferative activity / ED50 thymolytic activity (oral route)” value was 0.046.

In the data set with granuloma, `C[C@@H]1C[C@H]2[C@@H]3CCC4=CC(=O)C=C[C@]4(C)[C@@]3(F)[C@@H](O)C[C@]2(C)[C@@]1(O)C(=O)CSC(=O)C(C)(C)C` [JO 1008, Dihydroxy-11β, 17α thiol-21 dioxo-3,20 fluoro-9α methyl-16α pregnadiene-1,4-21-pivalate] had an ED50 anti-proliferative activity of 1 mg/pellet. In the data set on thymus (rat, in vivo, 5760 min), the “ED50 thymolytic activity, sub-cutaneous route” value worked out at 0.8 mg. In addition, the “ED50 anti-proliferative activity / ED50 thymolytic activity (sub-cutaneous route)” value with granuloma / thymus is 1.25.

The molecule `CCCCCCC(=O)SCC(=O)[C@@]1(O)CC[C@H]2[C@@H]3CCC4=CC(=O)C=C[C@]4(C)[C@H]3[C@@H](O)C[C@@]21C` [JO 1009, Dihydroxy-11β, 17αthiol-21 dioxo-3,20 pregnadiene-1,4-21 heptanoate] displayed an ED50 anti-proliferative activity in the data set with granuloma of 0.5 mg/pellet. The “ED50 thymolytic activity, sub-cutaneous route” value in the data set on thymus (rat, in vivo, 5760 min) is 8 mg. In addition, the “ED50 anti-proliferative activity / ED50 thymolytic activity (sub-cutaneous route)” value with granuloma / thymus was found to be 0.0625.

Take `CCCCCCC(=O)SCC(=O)[C@@]1(O)[C@H](C)C[C@H]2[C@@H]3CCC4=CC(=O)C=C[C@]4(C)[C@@]3(F)[C@@H](O)C[C@@]21C` [JO 1010, Dihydroxy611β, 17α thiol-21 dioxo-3,20 fluoro-9α methyl-16α pregnadiene-1,4-21 heptanoate]: the ED50 anti-proliferative activity in the data set with granuloma is 0,5 mg/pellet. Moreover, in the data set with thymus (rat, in vivo, 5760 min), the “ED50 thymolytic activity, sub-cutaneous route” value was determined as 0.4 mg. For the same molecule, the “ED50 anti-proliferative activity / ED50 thymolytic activity (sub-cutaneous route)” value in the data set on granuloma / thymus is listed as 1.25.

Consider `C[C@@H]1C[C@H]2[C@@H]3CCC4=CC(=O)C=C[C@]4(C)[C@@]3(F)[C@@H](O)C[C@]2(C)[C@@]1(O)C(=O)CSC(=O)c1ccc(F)cc1` [JO 1013, Dihydroxy-11β, 17α thiol-21 dioxo-3,20 fluoro-9α methyl-16α pregnadiene-1,4-21 p. fluoro benzoate], for which the ED50 anti-proliferative activity in the data set with granuloma stood at 0.5 mg/pellet. Also, the “ED50 thymolytic activity, sub-cutaneous route” value in the data set with thymus (rat, in vivo, 5760 min) was 0.8 mg. The “ED50 anti-proliferative activity / ED50 thymolytic activity (sub-cutaneous route)” value with granuloma / thymus is reported as 0.625.

In the case of `C[C@]12C=CC(=O)C=C1CC[C@@H]1[C@@H]2[C@@H](O)C[C@@]2(C)[C@H]1CC[C@]2(O)C(=O)CSC(=O)c1ccc(F)cc1` [JO 1014, Thiol-21 dioxo-3,20 pregnadiene-1,4-21 p. fluorobenzoate], in the data set on granuloma, the ED50 anti-proliferative activity came out at 0.5 mg/pellet. Also, the “ED50 thymolytic activity, sub-cutaneous route” value in the data set with thymus (rat, in vivo, 5760 min) is reported as > 40 mg. Besides, the “ED50 thymolytic activity, oral route” value in the data set with thymus (rat, in vivo, po, 5760 min) amounted to 40 mg. Also, in the data set on granuloma / thymus, the “ED50 anti-proliferative activity / ED50 thymolytic activity (sub-cutaneous route)” value is given as 0.0125 and the “ED50 anti-proliferative activity / ED50 thymolytic activity (oral route)” value is reported as 0,012.

`C[C@]12CCC(=O)C=C1CC[C@@H]1[C@@H]2[C@@H](O)C[C@@]2(C)[C@H]1CC[C@]2(O)C(=O)CSC(=O)c1ccc(F)cc1` [JO 1026, Dihydroxy-11β, 17α thiol-21 dioxo-3,20 pregnene-4-21 p. fluoro-benzoate] returned an ED50 anti-proliferative activity in the data set with granuloma of 0.4 mg/pellet. The “ED50 thymolytic activity, sub-cutaneous route” value with thymus (rat, in vivo, 5760 min) is given as > 40 mg. Further, the “ED50 thymolytic activity, oral route” value in the data set on thymus (rat, in vivo, po, 5760 min) is recorded as > 40 mg. In the data set on granuloma / thymus, the “ED50 anti-proliferative activity / ED50 thymolytic activity (sub-cutaneous route)” value is on record as < 0.01 and the “ED50 anti-proliferative activity / ED50 thymolytic activity (oral route)” value is < 0.01.

Molecule `CC(=O)OCC(=O)[C@@]1(O)CC[C@H]2[C@@H]3CCC4=CC(=O)C=C[C@]4(C)[C@H]3[C@@H](O)C[C@@]21C` [Prednisolone (acetate), reference compound] displayed an ED50 anti-proliferative activity in the data set with granuloma of 2 mg/pellet. Also, in the data set with thymus (setting [2]), the “ED50 thymolytic activity, oral route” value was 0.64 mg. Besides, in the data set on thymus (setting [3]), the “ED50 thymolytic activity, sub-cutaneous route” value is recorded as 0.23 mg.

Turning to `C[C@]12C=CC(=O)C=C1CC[C@@H]1[C@@H]2[C@@H](O)C[C@@]2(C)[C@H]1CC[C@]2(O)C(=O)CO` [Prednisolone (base), Prednisolone, reference compound], the ED50 anti-proliferative activity with granuloma came out at 4 mg/pellet. Further, the “ED50 thymolytic activity, oral route” value in the data set with thymus (setting [2]) is given as 0.34 mg. Further, in the data set on thymus (setting [3]), the “ED50 thymolytic activity, sub-cutaneous route” value was 0.84 mg. In the data set on granuloma / thymus, the “ED50 anti-proliferative activity / ED50 thymolytic activity (sub-cutaneous route)” value turned out to be 5 and the “ED50 anti-proliferative activity / ED50 thymolytic activity (oral route)” value was 12.5.
